Consider 2 molecules from patent publication US20230338294A1, “NOVEL PHARMACEUTICAL FORMULATION FOR C-MET INHIBITOR” (APOLLOMICS INC., priority 2020, published 2023).

Series [1] is described as follows: Two stage 'gastric transfer' non-sink biorelevant dissolution test. In kind it is physicochemical. The settings on record: for Cmax FaSSIF: intestinal stage FaSSIF pH 6.8; for AUC35-210 FaSSIF: 35-210 minutes in FaSSIF; for C210: concentration at 210 minutes. Here is the method: Biorelevant drug dissolution performance for bulk API and subsequent ASDs was evaluated by Patheon's two stage ‘gastric transfer’ non-sink dissolution test, which simulates pH and bile salt concentrations for both gastric and intestinal exposure in a simple to perform assay. Pre-weighed powder is briefly suspended in media (e.g. by 10 sec vortex mixing with 4.0 mL media) and transferred to a pre-heated (37° C.) volume of 50 mL of 0.1N HCl (aq) pH ˜1.0, without pepsin or bile salts), in a USP Type 2 mini-vessel (100 mL total vessel volume) while stirring (paddles) at 100 rpm. After 30 minutes of gastric pH exposure, an equal volume of PBS buffered, 2× concentrated fasted-state simulated intestinal fluid (FaSSIF) is added to the HCl, resulting in a final pH of 6.8 in FaSSIF (100 mM PBS containing 2.24 mg/mL FaSSIF/FeSSIF/FaSSGF powder (Biorelevant Inc.) in a total volume of 100 mL. Aliquots (1.0 mL) of dissolution media are taken at the following time points: 10, 25, 35, 50, 70, 120 and 210 minutes. The first two aliquots are taken from the simulated gastric media, with the remaining five aliquots from the intestinal media. Aliquots are spun-down (13000 rpm) to pellet out undissolved solids, and the supernatant sampled and further diluted in an appropriate diluent to determine API total drug concentration (e.g. free and colloidal/polymer-bound drug in solution) utilizing a suitable HPLC method. The volume of FaSSIF added is adjusted to account for the sampling volume removed prior to gastric transfer (typically 4×1.0 mL). Initial API concentration in dissolution samples was determined utilizing a HPLC method.
The dissolution performance of the feasibility SDIs and bulk APL-101 was tested in a biorelevant non-sink dissolution experiment as described in EXAMPLE 1. The design of this experiment is to rank order and select lead formulations. […] 20% and 33% active HPMCAS-H and 20% active HPMC-E3LV and PVP-VA based formulations were nominated as the lead formulations.

Series [2] in a line: Glass transition temperature (Tg) by modulated DSC. In kind it is physicochemical. The settings on record: MDSC. Here is the method: DSC was performed using a TA Instruments Discovery DSC2500 differential scanning calorimeter equipped with a TA instruments Refrigerated Cooling System 90 operating in either modulated or ramp mode. DSC was used to measure thermodynamic events and characteristics of APL-101 bulk API and subsequent Spray Dried Intermediates (SDIs). Events observed include the glass transition temperature (Tg) defined as the temperature at which amorphous materials transition from a low mobility glassy state to a high mobility rubbery state, cold crystallization (Tc), defined as a crystallization event at a temperature lower than the melt temperature, and melting temperature (Tm). SDI samples were placed in non-hermetic aluminum pans and heated at a constant rate of 2.0° C./min over a 25-200° C. temperature range. The system was purged by nitrogen flow at 50 mL/min to ensure inert atmosphere through the course of measurement. APL-101 was initially analyzed by standard DSC with a heating rate of 10° C./min ramping up to 221° C. […] The resulting amorphous API was analyzed by modulated DSC to determine the glass transition temperature. […]
Thermal properties of bulk APL-101 were measured by DSC. Three API lots were tested, and it was determined that there were two API forms, Forms A and B, both of which are thought to be hydrates. […]

On to `Cn1cc2cc(C(F)(F)c3nnc4ccc(-c5cnn(C6CC6)c5)nn34)c(F)cc2n1` [APL-101 Form B, 6-(1-cyclopropylpyrazol-4-yl)-3-[difluoro-(6-fluoro-2-methylindazol-5-yl)methyl]-[1,2,4]triazolo[4,3-b]pyridazine], for which the “Cmax FaSSIF” value in series [1] (Table 3, feasibility SDIs) is 8.9 μgA/mL; in series [1] (Table 6, prototype SDI) it was 8.9 μgA/mL. The “AUC35-210 FaSSIF” value in series [1] (Table 3) and in series [1] (Table 6) was 1400 min*μgA/mL each time. In addition, the C210 in series [1] (Table 3) and in series [1] (Table 6) was 7.8 μgA/mL throughout. The molecule further registered a Tg in series [2] of 89 °C. Besides, in series [2] (indicative of moderate physical stability), the Tm/Tg ratio amounted to 1.37 K/K.
As to `Cn1cc2cc(C(F)(F)c3nnc4ccc(-c5cnn(C6CC6)c5)nn34)c(F)cc2n1` [APL-101, 6-(1-cyclopropylpyrazol-4-yl)-3-[difluoro-(6-fluoro-2-methylindazol-5-yl)methyl]-[1,2,4]triazolo[4,3-b]pyridazine], in series [1] (gastric and intestinal media, in words), the dissolution performance result is reported as “very low dissolution performance”.
